Assay results from US20260297060A1, “COMPOUNDS FOR THE DEGRADATION OF MUTANT BRAF” (C4 THERAPEUTICS, INC., priority 2023, published 2026).

Experiments:
[1] = system: A375-NRAS^Q61K cells; test: CTGlo Cell Viability Assay, A375-NRAS^Q61K (A375.11) cells, 96 hours; type: cell-based, human; settings: A375.11 (A375-NRAS^Q61K) cells; for Emax: lowest % viability achieved
Method in brief: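 A375 cells carrying BRAF V600E and NRAS Q61K were seeded at 250 cells/well with a 10-point half-log dose series (max 10 μM final). After 96 h at 37 °C, viability was read as ATP luminescence (CellTiter-Glo), background-subtracted and normalized to DMSO (100%). GI50 from 4-parameter fit; Emax is the lowest % viability.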

[2] = target: T1, human bile salt export pump (BSEP) efflux transporter (Homo sapiens, UniProt O95342); test: BSEP Vesicular Transport Inhibition Assay (IC50 determination); type: biochemical; settings: human BSEP (HEK293) vesicles, taurocholate 0.2 μM, 4 mM Mg-ATP, 10 concentrations, 1 replicate
T1 construct: purchased SOLVO Biotechnology Charles River Laboratories, Szeged, Hungary; host or cells: HEK293 (inside out membrane vesicles)
Procedure: The vesicular transport (VT) assays were performed using inside out membrane vesicles derived from HEK293 cells expressing the specified human bile salt export pump (BSEP) efflux transporter. The membrane vesicles were procured from SOLVO Biotechnology Charles River Laboratories, Szeged, Hungary.
The principle of the assay relies on measuring the accumulation of substrate into inside out vesicles containing the efflux transporter. By utilizing inside out vesicles, the ATP-dependent transport of substrate is directed into the vesicular lumen, where low permeability compounds are then essentially trapped.
For the IC50 screen inhibition assay, 10 concentrations of each compound were tested in the presence of ATP (active transport) in 1 replicate.
The solvent control (DMSO) was tested in the presence of ATP (active transport) and in the presence of AMP (background) in 8 replicates.
Vesicular transport inhibition assays were performed using the specific parameters for each transporter inhibition assay described in Table 53.
Table 54 specifies treatment groups and concentration of compounds, that were examined in the vesicular transport inhibition assay. Detailed data of IC50 screen inhibition assay are shown in Table 55 and detailed data of 1 concentration inhibition assay are shown in Table 56.
The vesicular transport inhibition assay was performed with 4 mM Mg-ATP. For the IC50 screen inhibition assay, 10 concentrations of each compound were tested in the presence of ATP in 1 replicate. For the 1 concentration inhibition assay, 1 concentration of each compound was tested in the presence of ATP (active transport) in 2 replicates. The solvent control (DMSO) was tested in the presence of 4 mM Mg-ATP (active transport) and in the presence of 4 mM AMP (background) in 8 replicates.
The BSEP membrane vesicle suspension was mixed with the ice-cold transport buffer, then the taurocholate probe substrate solution was added (Reaction mixture, 50 μL per well). The compounds were added to the reaction mixture at 1.5-times the final assay concentration. […].
Reaction mixtures and the start reagent (Mg-ATP or AMP in transport buffer) were pre-warmed separately for 15 minutes to reach the incubation temperature of 37° C. […]
The reaction was initiated by the addition of the start reagent (25 μL) to the reaction mixture (diluting the reaction mixture to the final concentration). […] After the 5-minute incubation at 37° C., the reaction was stopped by the addition of 250 μL ice-cold washing mix to each well. […]
The samples were then be transferred to a filter plate and washed with 200 μL cold washing mix5-times to remove any free compounds or taurocholate probe substrate. The amount of taurocholate probe substrate inside the filtered vesicles were determined by liquid scintillation counting. […]

T1 sequence (O95342 whole entry): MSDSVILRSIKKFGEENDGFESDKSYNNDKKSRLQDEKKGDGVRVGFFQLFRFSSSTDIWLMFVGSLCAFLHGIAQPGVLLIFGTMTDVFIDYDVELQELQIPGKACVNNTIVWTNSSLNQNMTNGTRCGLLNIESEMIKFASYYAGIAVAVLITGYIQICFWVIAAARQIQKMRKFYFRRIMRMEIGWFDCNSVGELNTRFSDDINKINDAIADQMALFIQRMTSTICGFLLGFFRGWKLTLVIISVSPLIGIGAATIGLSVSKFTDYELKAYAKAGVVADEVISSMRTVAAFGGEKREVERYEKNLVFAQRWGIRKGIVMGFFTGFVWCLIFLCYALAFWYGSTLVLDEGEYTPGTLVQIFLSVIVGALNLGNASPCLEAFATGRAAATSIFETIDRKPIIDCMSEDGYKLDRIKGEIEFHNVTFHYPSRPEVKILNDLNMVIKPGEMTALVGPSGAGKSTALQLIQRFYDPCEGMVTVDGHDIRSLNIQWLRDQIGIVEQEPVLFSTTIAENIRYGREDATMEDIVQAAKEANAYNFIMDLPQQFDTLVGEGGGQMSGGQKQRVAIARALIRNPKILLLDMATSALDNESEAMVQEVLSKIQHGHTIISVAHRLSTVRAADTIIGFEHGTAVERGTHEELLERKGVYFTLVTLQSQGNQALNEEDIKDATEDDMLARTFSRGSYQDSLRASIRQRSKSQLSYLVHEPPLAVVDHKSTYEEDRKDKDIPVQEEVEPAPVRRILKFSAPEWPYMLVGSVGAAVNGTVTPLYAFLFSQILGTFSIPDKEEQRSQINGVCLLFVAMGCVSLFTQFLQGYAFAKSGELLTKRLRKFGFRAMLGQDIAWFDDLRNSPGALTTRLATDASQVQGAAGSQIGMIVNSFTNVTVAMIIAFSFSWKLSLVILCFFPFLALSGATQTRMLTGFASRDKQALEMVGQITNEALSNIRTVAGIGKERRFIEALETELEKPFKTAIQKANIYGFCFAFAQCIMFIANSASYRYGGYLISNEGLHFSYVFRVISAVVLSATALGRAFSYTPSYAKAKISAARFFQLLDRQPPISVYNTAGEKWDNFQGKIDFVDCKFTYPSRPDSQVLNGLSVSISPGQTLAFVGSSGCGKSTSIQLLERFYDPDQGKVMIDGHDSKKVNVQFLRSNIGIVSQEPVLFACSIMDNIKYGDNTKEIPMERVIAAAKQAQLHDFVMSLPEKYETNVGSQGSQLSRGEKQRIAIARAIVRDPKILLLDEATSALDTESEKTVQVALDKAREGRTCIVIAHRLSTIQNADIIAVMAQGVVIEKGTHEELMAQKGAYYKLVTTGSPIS

GI50 [1]	GI50 ([1]; Homo sapiens, 96 h)	SMILES	Emax ([1]; Homo sapiens, 96 h)	BSEP Inhibition/IC50 ([2]; in nM)	BSEP Inhibition/IC50 [2]
< 1 µM	–	CCN(C)S(=O)(=O)Nc1ccc(F)c(Oc2ccc3ncc(OC4CC5(CCN(C6CCC(c7cc8c(cc7F)c(N7CCC(=O)NC7=O)nn8C)CC6)CC5)C4)nc3c2)c1C#N (single isomer, unassigned) [Compound 218, 7-[2-cyano-3-[[ethyl(methyl)sulfamoyl]amino]-6-fluoro-phenoxy]-2-[[7-[4-[3-(2,4-dioxohexahydropyrimidin-1-yl)-5-fluoro-1-methyl-indazol-6-yl]cyclohexyl]-7-azaspiro[3.5]nonan-2-yl]oxy]quinoxaline]	50 to 90%	13210	–
–	1 to 10 µM	CCN(C)S(=O)(=O)Nc1ccc(F)c(Oc2ccc3ncn([C@H]4COC5(CCC(N6CC7(CN(c8ccc(NC9CCC(=O)NC9=O)cc8F)C7)C6)CC5)C4)c(=O)c3c2)c1C#N (stereo partly drawn) [Compound 30, 6-[2-cyano-3-[[ethyl(methyl)sulfamoyl]amino]-6-fluoro-phenoxy]-3-[(3R)-8-[6-[4-[(2,6-dioxo-3-piperidyl)amino]-2-fluoro-phenyl]-2,6-diazaspiro[3.3]heptan-2-yl]-1-oxaspiro[4.5]decan-3-yl]-4-oxo-quinazoline]	< 50%	–	8.52 µM
–	1 to 10 µM	Cn1nc(N2CCC(=O)NC2=O)c2cc(F)c(N3CC4(CC(N5CCC6(CC5)C[C@@H](n5cnc7ccc(Oc8c(F)ccc(NS(=O)(=O)N9CC[C@@H](F)C9)c8C#N)cc7c5=O)CO6)C4)C3)cc21 [Compound 133, (3R)-N-[2-cyano-3-[3-[(3R)-8-[2-[3-(2,4-dioxohexahydropyrimidin-1-yl)-5-fluoro-1-methyl-indazol-6-yl]-2-azaspiro[3.3]heptan-6-yl]-1-oxa-8-azaspiro[4.5]decan-3-yl]-4-oxo-quinazolin-6-yl]oxy-4-fluoro-phenyl]-3-fluoro-pyrrolidine-1-sulfonamide]	< 50%	–	6.22 µM
–	< 1 µM	CO[C@@H]1CCN(S(=O)(=O)Nc2ccc(F)c(Oc3ccc4ncn([C@H]5COC6(CCN(C7CC8(C7)CN(c7cc9c(cc7F)c(N7CCC(=O)NC7=O)nn9C)C8)CC6)C5)c(=O)c4c3)c2C#N)C1 [Compound 144, (3R)-N-[2-cyano-3-[3-[(3R)-8-[2-[3-(2,4-dioxohexahydropyrimidin-1-yl)-5-fluoro-1-methyl-indazol-6-yl]-2-azaspiro[3.3]heptan-6-yl]-1-oxa-8-azaspiro[4.5]decan-3-yl]-4-oxo-quinazolin-6-yl]oxy-4-fluoro-phenyl]-3-methoxy-pyrrolidine-1-sulfonamide]	< 50%	–	7.94 µM
–	< 1 µM	CCN(C)S(=O)(=O)Nc1ccc(F)c(Oc2ccc3ncn(C4CC5(CCN(C6CCN(c7cc8c(cc7F)c(N7CCC(=O)NC7=O)nn8C)CC6)CC5)C4)c(=O)c3c2)c1C#N [Compound 156, 6-[2-cyano-3-[[ethyl(methyl)sulfamoyl]amino]-6-fluoro-phenoxy]-3-[7-[1-[3-(2,4-dioxohexahydropyrimidin-1-yl)-5-fluoro-1-methyl-indazol-6-yl]-4-piperidyl]-7-azaspiro[3.5]nonan-2-yl]-4-oxo-quinazoline]	50 to 90%	>40000	–
–	< 1 µM	CO[C@H]1CCN(S(=O)(=O)Nc2ccc(F)c(Oc3ccc4ncn([C@H]5COC6(CCN(C7CC8(C7)CN(c7cc9c(cc7F)c(N7CCC(=O)NC7=O)nn9C)C8)CC6)C5)c(=O)c4c3)c2C#N)C1 [Compound 157, (3S)-N-[2-cyano-3-[3-[(3R)-8-[2-[3-(2,4-dioxohexahydropyrimidin-1-yl)-5-fluoro-1-methyl-indazol-6-yl]-2-azaspiro[3.3]heptan-6-yl]-1-oxa-8-azaspiro[4.5]decan-3-yl]-4-oxo-quinazolin-6-yl]oxy-4-fluoro-phenyl]-3-methoxy-pyrrolidine-1-sulfonamide]	50 to 90%	–	8.83 µM
–	< 1 µM	CCN(C)S(=O)(=O)Nc1ccc(F)c(Oc2ccc3ncc([C@H]4COC5(CCN(C6CC7(C6)CN(c6cc8c(cc6F)c(N6CCC(=O)NC6=O)nn8C)C7)CC5)C4)nc3c2)c1C#N [Compound 158, (3S)-3-[7-[2-cyano-3-[[ethyl(methyl)sulfamoyl]amino]-6-fluoro-phenoxy]quinoxalin-2-yl]-8-[2-[3-(2,4-dioxohexahydropyrimidin-1-yl)-5-fluoro-1-methyl-indazol-6-yl]-2-azaspiro[3.3]heptan-6-yl]-1-oxa-8-azaspiro[4.5]decane]	50 to 90%	–	7.53 µM
–	< 1 µM	CCN(C)S(=O)(=O)Nc1ccc(F)c(Oc2ccc3ncc(C4CC5(CCN(C6CC7(C6)CN(c6cc8c(cc6F)c(N6CCC(=O)NC6=O)nn8C)C7)CC5)C4)nc3c2)c1C#N (stereo not drawn) [Compound 177, 7-[2-cyano-3-[[ethyl(methyl)sulfamoyl]amino]-6-fluoro-phenoxy]-2-[7-[2-[3-(2,4-dioxohexahydropyrimidin-1-yl)-5-fluoro-1-methyl-indazol-6-yl]-2-azaspiro[3.3]heptan-6-yl]-7-azaspiro[3.5]nonan-2-yl]quinoxaline]	50 to 90%	–	7.36 µM
–	1 to 10 µM	CCN(C)S(=O)(=O)Nc1ccc(F)c(Oc2ccc3ncn(C4CC5(CCN(C6CC7(CCN(c8cc9c(cc8F)c(N8CCC(=O)NC8=O)nn9C)CC7)C6)CC5)C4)c(=O)c3c2)c1C#N (stereo not drawn) [Compound 198, 6-[2-cyano-3-[[ethyl(methyl)sulfamoyl]amino]-6-fluoro-phenoxy]-3-[7-[7-[3-(2,4-dioxohexahydropyrimidin-1-yl)-5-fluoro-1-methyl-indazol-6-yl]-7-azaspiro[3.5]nonan-2-yl]-7-azaspiro[3.5]nonan-2-yl]-4-oxo-quinazoline]	< 50%	15250	–
–	< 1 µM	COC1CN(S(=O)(=O)Nc2ccc(F)c(Oc3ccc4ncn([C@H]5COC6(CCN(C7CC8(C7)CN(c7cc9c(cc7F)c(N7CCC(=O)NC7=O)nn9C)C8)CC6)C5)c(=O)c4c3)c2C#N)C1 [Compound 246, N-[2-cyano-3-[3-[(3R)-8-[2-[3-(2,4-dioxohexahydropyrimidin-1-yl)-5-fluoro-1-methyl-indazol-6-yl]-2-azaspiro[3.3]heptan-6-yl]-1-oxa-8-azaspiro[4.5]decan-3-yl]-4-oxo-quinazolin-6-yl]oxy-4-fluoro-phenyl]-3-methoxy-azetidine-1-sulfonamide]	< 50%	–	8.79 µM

SMILES	GI50 [1]	GI50 ([1]; Homo sapiens, 96 h)	Emax ([1]; Homo sapiens, 96 h)	BSEP Inhibition/IC50 ([2]; in nM)	BSEP Inhibition/IC50 [2]
CCN(C)S(=O)(=O)Nc1ccc(F)c(Oc2ccc3ncn([C@H]4COC5(CCN(C6CC7(C6)CN(c6cc8c(cc6F)c(N6CCC(=O)NC6=O)nn8C)C7)CC5)C4)c(=O)c3c2)c1C#N [Compound 26, (3R)-3-[6-[2-cyano-3-[[ethyl(methyl)sulfamoyl]amino]-6-fluoro-phenoxy]-4-oxo-quinazolin-3-yl]-8-[2-[3-(2,4-dioxohexahydropyrimidin-1-yl)-5-fluoro-1-methyl-indazol-6-yl]-2-azaspiro[3.3]heptan-6-yl]-1-oxa-8-azaspiro[4.5]decane]	–	< 1 µM	50 to 90%	21770	–
CCN(C)S(=O)(=O)Nc1ccc(F)c(Oc2ccc3ncn(C4CC5(CCN(C6CC7(C6)CN(c6cc8c(cc6F)c(N6CCC(=O)NC6=O)nn8C)C7)CC5)C4)c(=O)c3c2)c1C#N (stereo not drawn) [Compound 141, 6-[2-cyano-3-[[ethyl(methyl)sulfamoyl]amino]-6-fluoro-phenoxy]-3-[7-[2-[3-(2,4-dioxohexahydropyrimidin-1-yl)-5-fluoro-1-methyl-indazol-6-yl]-2-azaspiro[3.3]heptan-6-yl]-7-azaspiro[3.5]nonan-2-yl]-4-oxo-quinazoline]	–	< 1 µM	50 to 90%	>40000	–
